Test results reported in paper PMC12693419, “Design, Synthesis, Biological Evaluation, and In Silico Studies of Novel Multitarget Cinnamic Acid Hybrids” (Molecules, 2025).

What was measured:
[1] = target: T1, COX-1 (Homo sapiens, UniProt P23219); assay: In vitro inhibition of COX-1; assay type: biochemical
T1 construct: purchased Merck and Sigma-Aldrich
Text: Enzyme inactivation can occur due to the accumulation of hydroperoxides formed from arachidonic acid or other fatty acid substrates. In order to prevent this in the in vitro experiment used for testing COX inhibition activity of the new molecules, a co-substrate like N,N,N′,N′-tetramethyl-p-phenylenediamine (TMPD) is included, as it undergoes co-oxidation by PGG2. The oxidized TMPD has a maximum absorbance at 590 nm. COX enzymes also depend on heme (Fe^3+-protoporphyrin IX) as a cofactor, which can dissociate during purification. To ensure maximum enzyme activity, heme is added to the reaction mixture during the in vitro assay for ovine COX-2 inhibition and COX-1 inhibition.
Cyclooxygenase (COX) activity was measured using arachidonic acid (AA) as the substrate and N,N,N′,N′-tetramethylphenylenediamine (TMPD) as the co-substrate following the reported method. […] The substrate oxidation was monitored at room temperature by recording the increase in absorbance at 590 nm. Absorbance due to the spontaneous oxidation of TMPD was subtracted from the initial oxidation rate observed in the presence of AA. The inhibitory activity of the test compounds at a concentration of 100 μM was evaluated after a 6-min pre-incubation with the enzyme in the presence of heme and TMPD.

[2] = test system: HeLa cells; assay: MTT viability assay; assay type: cell-based; conditions: Homo sapiens, 48 h
Procedure: (§1) HeLa, MCF-7, U251, U87, MDA-MB-435, and MDA-MB-231 cancer cell lines were maintained in incubators at 37 °C with 5% CO2 in DMEM medium supplemented with 10% (v/v) fetal bovine serum (FBS) and antibiotics/antimycotics. All cell lines used in this study originate from the Laboratory of Biochemistry, Department of Chemistry, Aristotle University of Thessaloniki. They are low-passage, mycoplasma-free cancer cell lines that have been extensively used over the past 25 years in numerous studies across various fields of cancer research, including drug cytotoxicity testing.
(§2) All cell lines tested were seeded in 96-well plates at a concentration of 6 × 10^3 cells per well, except HeLa, which were seeded at 3 × 10^3 cells per well. The day after, cells were exposed to increasing concentrations of the compounds for 48 h. Cell viability was determined using the 3-(4,5-dimethylthiazol-2-yl)-2,5-diphenyltetrazolium bromide (MTT) assay, a colorimetric assessment of cellular metabolic activity as described previously. Absorbance values from treated samples were normalized to those of untreated controls, which were assigned to a 100% viability value.

[3] = test system: MCF-7 cells; assay: MTT viability assay; assay type: cell-based; conditions: Homo sapiens, MCF7, 48 h
Procedure: as §1, §2

[4] = In vitro determination of NO release with Griess reagent; conditions: 100 μM, L-cysteine, pH 7.4, 37 °C, 60 min
Text: This assay evaluates the ability of nitrate esters to release nitric oxide (NO). First, sodium nitroprusside (SNP) reacts with the thiol compound, cysteine, which serves as a reducing agent (Scheme 5). The thiol donates electrons, facilitating the breakdown of the nitroprusside complex. Afterwards, the reaction leads to the formation of intermediate complexes, such as nitrosothiol species and the decomposition of these intermediates results in the release of nitric oxide (NO). According to the literature, measurements are conducted both in the presence and absence of the thiol agent, cysteine. No significant difference was observed between the two experimental conditions, and the results were reproducible. Sodium nitroprusside (SNP) was used as the reference compound [65].
The compounds (from a 10 mM stock solution in DMSO, final concentration 100 μM) are added (20 μL) to each test tube. Then, 2 mL of phosphate buffer solution (pH 7.4) is added. L-cysteine, used as the thiol agent, is added to the mixture at a final concentration of 0.5 mM. The solution is incubated at 37 °C for 60 min, after which 1 mL is removed and mixed with 250 μL of Griess reagent (4 g sulfanilamide, 0.2 g N-(1-naphthyl)-ethylenediamine dihydrochloride, and 10 mL of H3PO4 solution, final volume adjusted to 100 mL). The mixture is allowed to stand for 10 min at room temperature, and the absorbance of the produced compound is measured at 540 nm. Sodium nitroprusside (SNP) is used as the reference compound. The results are presented as the release of NO2^− (% NO2^− (mol/mol)) induced by the compounds in the presence of L-cysteine (Table 6).

[5] = target: T2, ovine COX-2 (Ovis aries, UniProt P79208); assay: In vitro inhibition of ovine cyclooxygenase-2
T2 sequence (P79208 17-603): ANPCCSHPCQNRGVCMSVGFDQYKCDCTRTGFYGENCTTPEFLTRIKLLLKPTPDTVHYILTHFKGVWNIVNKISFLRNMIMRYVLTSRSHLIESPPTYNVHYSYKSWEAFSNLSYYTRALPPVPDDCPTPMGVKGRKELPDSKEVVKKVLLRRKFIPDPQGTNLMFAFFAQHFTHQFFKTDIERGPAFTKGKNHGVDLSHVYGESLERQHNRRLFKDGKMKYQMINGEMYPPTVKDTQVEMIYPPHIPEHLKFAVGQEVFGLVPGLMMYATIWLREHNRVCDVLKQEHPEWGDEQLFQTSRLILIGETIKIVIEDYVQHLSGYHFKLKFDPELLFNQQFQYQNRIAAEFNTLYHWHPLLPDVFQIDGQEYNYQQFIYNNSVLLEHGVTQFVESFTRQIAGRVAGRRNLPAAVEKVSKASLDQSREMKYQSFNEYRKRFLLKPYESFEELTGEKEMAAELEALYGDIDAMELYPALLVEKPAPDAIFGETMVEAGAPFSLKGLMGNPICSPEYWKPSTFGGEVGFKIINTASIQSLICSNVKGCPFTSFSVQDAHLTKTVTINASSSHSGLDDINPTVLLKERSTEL
Procedure: In order to prevent this in the in vitro experiment used for testing COX inhibition activity of the new molecules, a co-substrate like N,N,N′,N′-tetramethyl-p-phenylenediamine (TMPD) is included, as it undergoes co-oxidation by PGG2. The oxidized TMPD has a maximum absorbance at 590 nm. […] To ensure maximum enzyme activity, heme is added to the reaction mixture during the in vitro assay for ovine COX-2 inhibition and COX-1 inhibition [63].
The in vitro COX-2 inhibitory activity was assessed using arachidonic acid (AA) as a substrate and N,N,N′,N′-tetramethyl-p-phenylenediamine (TMPD) as a co-substrate in a Tris-HCl buffer (pH 8.5), following the reported method [89]. To the test tube, 10 µL of the compound dissolved in DMSO was added to a mixture containing 730 µL of Tris-HCl buffer (pH 8.5), 50 µL of heme, 10 µL of COX-2 enzyme, and 100 µL of TMPD. The absorbance was measured at 590 nm. […] A blank determination was conducted as a negative control.

T1 sequence (P23219 24-599): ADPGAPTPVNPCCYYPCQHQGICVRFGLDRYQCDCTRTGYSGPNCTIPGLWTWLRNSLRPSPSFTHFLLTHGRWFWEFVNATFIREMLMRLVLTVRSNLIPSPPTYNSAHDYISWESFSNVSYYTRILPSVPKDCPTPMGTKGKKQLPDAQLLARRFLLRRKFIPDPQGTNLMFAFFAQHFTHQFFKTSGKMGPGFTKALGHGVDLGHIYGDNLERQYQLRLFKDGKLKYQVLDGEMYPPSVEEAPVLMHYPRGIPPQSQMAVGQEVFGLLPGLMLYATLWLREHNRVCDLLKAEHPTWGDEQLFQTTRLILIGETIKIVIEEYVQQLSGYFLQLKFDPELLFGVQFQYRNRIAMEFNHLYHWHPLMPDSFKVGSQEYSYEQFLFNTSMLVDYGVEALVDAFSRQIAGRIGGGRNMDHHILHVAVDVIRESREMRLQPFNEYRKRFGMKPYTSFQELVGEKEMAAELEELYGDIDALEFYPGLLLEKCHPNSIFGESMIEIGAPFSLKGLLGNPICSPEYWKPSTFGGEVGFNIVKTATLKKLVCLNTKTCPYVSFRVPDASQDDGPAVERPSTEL

| inhibition at 100 µM [1] [%] | EC50 [2] [µM] | EC50 [3] [µM] | IC50 [5] [µM] | SMILES | COX-1 at 100 μM (% inhibition) [1] | %NO2^− Release mol/mol at 100 μΜ [4] |
| --- | --- | --- | --- | --- | --- | --- |
| 0 | 83 | > 100 | 35 | C/C(=N\O)c1ccc(NC(=O)COC(=O)/C=C/c2cccs2)cc1 [Compound 6c, 2-((4-((E)-1-(Hydroxyimino)ethyl)phenyl)amino)-2-oxoethyl (E)-3-(thiophen-2-yl)acrylate] | did not show any inhibition activity and no | 4% |
| 16.7 | 36.7 | 38.3 | 80 | C/C(=N\O)c1ccc(NC(=O)COC(=O)/C(=C/c2cccs2)c2ccccc2)cc1 [Compound 6i, 2-((4-((E)-1-(Hydroxyimino)ethyl)phenyl)amino)-2-oxoethyl (E)-2-phenyl-3-(thiophen-2-yl)acrylate] | – | no activity and no |
| 0 | 55.5 | 58.5 | 8.25 | O=C(/C=C/c1cc2ccccc2s1)OCc1c(-c2ccccc2)no[n+]1[O-] [Compound 9e, (E)-3-(((3-(Benzo[b]thiophen-2-yl)acryloyl)oxy)methyl)-4-phenyl-1,2,5-oxadiazole 2-oxide] | did not show any inhibition activity and no | no |
